The results in this text go back to ChEMBL document CHEMBL1142847, “New orally active spiro 1,2,4-trioxanes with high antimalarial potency” (2005).

Common to all, as to type: functional
Experiment [1] relates to Rattus norvegicus. Nature of the experiment: Number of Swiss mice (Mus musculus) alive in a batch of 5 infected with multidrug-resistant Plasmodium yoelii, on day 28 after peroral administration of 96 mg/kg/day dose. Particulars: route oral.
Experiment [2] is described as follows: Number of Swiss mice (Mus musculus) alive in a batch of 5 infected with multidrug-resistant Plasmodium yoelii, on day 28 after intramuscular administration of 96 mg/kg/day dose.
In experiment [3] the test system is Rattus norvegicus. Nature of the experiment: Number of Swiss mice (Mus musculus) alive in a batch of 5 infected with multidrug-resistant Plasmodium yoelii, on day 28 after oral administration of 24 mg/kg/day dose.
Experiment [4] concerns Rattus norvegicus. Put plainly: Number of Swiss mice (Mus musculus) alive in a batch of 5 infected with multidrug-resistant Plasmodium yoelii, on day 28 after peroral administration of 48 mg/kg/day dose. Particulars: route oral.

As for `C=C(c1ccccc1)C1COC2(CCC(O)CC2)OO1` (stereo not drawn), the Activity (in the experiment with Rattus norvegicus [1]; in experiment [2]) was 0 each time.
Regarding `C=C(c1ccccc1)C1COC2(CCC(=CC(=O)OCC)CC2)OO1` (stereo not drawn), the Activity in the experiment on Rattus norvegicus [3] came to 0; with Rattus norvegicus [4], 5; in the experiment on Rattus norvegicus [1] it was 5; in experiment [2], 2.
`C=C(c1ccccc1)C1COC2(CCC(=C(C)C(=O)OCC)CC2)OO1` (stereo not drawn): the Activity (in the experiment with Rattus norvegicus [1]; in experiment [2]) was 0 in each case.
`C=C(c1ccc(-c2ccccc2)cc1)C1COC2(CCC(=C(C)C(=O)OCC)CC2)OO1` (stereo not drawn): the figures for the Activity (in the experiment on Rattus norvegicus [4]; in the experiment with Rattus norvegicus [1]; in experiment [2]) were 0, 2 and 0, respectively.
Turning to `C=C(c1ccc(-c2ccccc2)cc1)C1COC2(CCC(O)CC2)OO1` (stereo not drawn), the Activity is reported as 0 in the experiment on Rattus norvegicus [1] and 2 in experiment [2].
For the molecule `C=C(c1ccc(-c2ccccc2)cc1)C1COC2(CCC(OC(=O)CCC(=O)O)CC2)OO1` (stereo not drawn), the Activity (in the experiment with Rattus norvegicus [1]; in experiment [2]) was 0 throughout.
As to `C=C(c1ccc(-c2ccccc2)cc1)C1COC2(CCC(O)(CC(=O)OCC)CC2)OO1` (stereo in doubt; form 1), the Activity (in the experiment with Rattus norvegicus [1]; in experiment [2]) was 0 each time.
Consider `C=C(c1ccccc1)C1COC2(CCC(O)(c3ccccc3)CC2)OO1` (stereo not drawn), for which the Activity (in the experiment with Rattus norvegicus [1]; in experiment [2]) was 0 in each case.
Regarding `C=C(c1ccc(-c2ccccc2)cc1)C1COC2(CCC(=CC(=O)OCC)CC2)OO1` (stereo not drawn), the Activity in the experiment on Rattus norvegicus [4] is on record as 0; with Rattus norvegicus [1] it was 5; in experiment [2] it was 0.
On to `C=C(c1ccccc1)C1COC2(CCC(C)(O)CC2)OO1` (stereo not drawn), for which the values for the Activity (in the experiment on Rattus norvegicus [1]; in experiment [2]) were 0 and 2, respectively.
Consider `C=C(c1ccccc1)C1COC2(CCC(O)(CC(=O)OCC)CC2)OO1` (stereo in doubt; form 1), for which the Activity (in the experiment with Rattus norvegicus [1]; in experiment [2]) was 0 each time.
For `C=C(c1ccccc1)C1COC2(CCC(OC(=O)CCC(=O)O)CC2)OO1` (stereo not drawn), the Activity (in the experiment with Rattus norvegicus [1]; in experiment [2]) was 0 each time.
